Starred links: 1 amine or outer side, 2 acyl side, 3 side chain; linkers in the order of their positions; H or OH if unused. Non-standard residues stand in square brackets, D forms with d. Residues, ends and D or L forms follow the SMILES beside them. Groups on a side chain read outwards from the residue. *: point of attachment. C18 diacid = O=C(O)CCCCCCCCCCCCCCCCC(=O)*; γGlu = O=C(O)[C@H](CCC(=O)[*:2])N[*:1]; εLys = N[C@@H](CCCCN[*:1])C(=O)[*:2]; Aib = CC(C)(N)C(=O)O
Columns and labels:
[1] = test system: diet-induced obese (DIO) mice; assay: Pharmacodynamic study in DIO mice: body weight and food intake; format: in vivo, C57BL/6J male mice; conditions: for Absolute BW Day 14 / Change in BW Day 14 / Cumulative food intake Day 14: 14 days; for Cumulative food intake Day 14: n = 2-3
Description: The purpose of this example is to assess the in vivo effect of select compounds on pharmacodynamic parameters in diet-induced obese (DIO) mice. The animals were treated once daily via subcutaneous injection with a liquid formulation of the test compound to assess effects on body weight, foot intake, and glucose tolerance. For comparison, the known GLP-1R/GIPR co-agonist tirzepatide and a surrogate of the GLP-1R agonist semaglutide were used as references. The semaglutide surrogate has the same pharmacological properties of semaglutide but a slightly modified structure in which the γGlu element of the substituent has been changed from the L-isomer to the D-isomer.
C57BL/6J male mice were purchased from Jackson Laboratories at approximately 8 weeks of age. Mice were group housed and fed a high-fat, high-sugar diet from Research Diets (D12331). Mice were maintained on this diet for 12 weeks prior to initializing the pharmacology studies. Mice exceeding a measured body weight of 50 grams were considered diet-induced obese (DIO) and included in pharmacology studies. Mice were exposed to a controlled 12 h:12 h light:dark cycle at ambient room temperature (22° C.) with ab libitum access to food and water. Studies were approved by and performed according to the guidelines of the Institutional Animal Care and Use Committee of the University of Cincinnati.
Animals were dosed once daily, subcutaneously with either vehicle or test compound. All injections occurred during the middle of the light phase at a fixed volume of 2-5 microliters per gram body weight.
All compounds in the study were formulated in the following buffer: 50 mM phosphate; 70 mM sodium chloride; 0.05% Tween-80, pH 7.4. Dosing solutions were formulated in glass vials and stored at 2-8° C. Dosing solutions were brought to room temperature before dosing and returned to 2-8° C. after dosing.
DIO mice were distributed into groups (n=8 per group) such that statistical variations in the mean and standard deviations of fat mass and body weight were minimized between groups. The animals were grouped to receive treatment as follows: Vehicle, tirzepatide, semaglutide surrogate or a GLP-1/GIP receptor co-agonists as described herein, where vehicle is 50 mM phosphate, 70 mM sodium chloride; 0.05% Tween-80, pH 7.4. The test compounds were dissolved in the vehicle, to stock concentrations of 100 μM, then diluted 50-200 fold in the vehicle to achieve the desired dosing solution concentrations. Animals were dosed subcutaneously once daily in the morning for each day of treatment with dosing solution at a volume of 2-5 μL per gram of body weight as necessary to achieve the desired dose (eg 0.3 nmol/kg, 1.0 nmol/kg, or 3.0 nmol/kg).
Body weight (BW) and food intake were measured immediately prior to dosing each day. The percent change in body was calculated individually for each mouse based on initial body weight prior to the first injection.

[2] = test system: diet-induced obese (DIO) mice; assay: Pharmacodynamic study in DIO mice: IPGTT (intraperitoneal glucose tolerance test); format: in vivo, C57BL/6J male mice; conditions: glucose 2 g/kg i.p., mean ± SEM; for iAUC, IPGTT Day 31: 30 days; for iAUC, IPGTT Day 15: 14 days
Description: On the day of the glucose tolerance test, animals were fasted for 4 h. Food was removed and animals were transferred to fresh cages. Animals had access to water but not to food. Tail blood glucose levels were measured, and mice were injected (t=0) with an intra-peritoneal (i.p.) glucose load of 2 g/kg (200 mg/ml glucose solution, dose volume 10 ml/kg). Tail blood glucose levels were measured at times 0, 15, 30, 60, 90, 120 minutes following the i.p. glucose load. Stratification of the animals during the IPGTT was such that for example two mice from group 1 are dosed followed by two mice from group 2, 3, 4, before the next two mice from group 1, 2, 3 etc. were handled. This was to allow for equal distribution of “time of day” throughout all groups.

human glucagon receptor = human glucagon receptor (Homo sapiens, UniProt P47871); assay: cell-based
human glucagon receptor, sequence (P47871 26-477): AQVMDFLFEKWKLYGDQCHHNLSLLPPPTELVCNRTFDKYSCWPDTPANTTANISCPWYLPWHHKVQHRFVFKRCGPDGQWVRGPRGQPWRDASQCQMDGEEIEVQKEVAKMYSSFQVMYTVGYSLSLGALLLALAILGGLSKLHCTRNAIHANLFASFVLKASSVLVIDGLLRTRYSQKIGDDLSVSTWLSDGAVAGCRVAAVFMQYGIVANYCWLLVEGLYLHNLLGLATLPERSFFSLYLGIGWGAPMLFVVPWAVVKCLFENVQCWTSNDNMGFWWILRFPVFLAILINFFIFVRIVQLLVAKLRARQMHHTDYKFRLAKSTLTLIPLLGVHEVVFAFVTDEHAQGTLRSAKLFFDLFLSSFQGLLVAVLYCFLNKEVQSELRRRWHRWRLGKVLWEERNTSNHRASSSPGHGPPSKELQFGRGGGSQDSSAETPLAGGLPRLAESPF

mouse GLP-1 receptor = molecular target: T1, mouse GLP-1 receptor (Mus musculus, UniProt O35659)
T1 sequence (O35659 22-463): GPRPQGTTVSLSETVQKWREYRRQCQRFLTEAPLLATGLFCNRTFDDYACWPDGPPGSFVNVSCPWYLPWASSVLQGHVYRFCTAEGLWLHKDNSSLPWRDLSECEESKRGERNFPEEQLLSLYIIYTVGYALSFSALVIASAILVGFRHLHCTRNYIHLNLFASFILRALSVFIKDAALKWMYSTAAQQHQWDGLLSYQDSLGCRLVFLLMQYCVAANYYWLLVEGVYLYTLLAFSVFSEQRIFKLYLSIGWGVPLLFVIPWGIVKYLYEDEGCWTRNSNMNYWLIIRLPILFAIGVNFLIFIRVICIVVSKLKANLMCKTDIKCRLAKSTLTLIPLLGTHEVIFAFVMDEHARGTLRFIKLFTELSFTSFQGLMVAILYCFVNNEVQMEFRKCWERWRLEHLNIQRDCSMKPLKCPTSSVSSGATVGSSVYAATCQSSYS
Description: The in vitro functional potency is the measure of target receptor activation in a whole cell assay.
In vitro functional potency was determined by measuring the response of the target receptor in a reporter gene assay in individual cell lines. […] When the respective receptor is activated, it results in the production of cAMP, which in turn results in expression of the luciferase protein. When assay incubation is completed, luciferase substrate (luciferin) is added resulting in the enzymatic conversion of luciferin to oxyluciferin and producing bioluminescence. The luminescence is measured as the readout for the assay.
The cells lines used in these assays were BHK cells with BHKTS13 as a parent cell line. The cell lines were derived from a clone containing the CRE luciferase element and were established by further transfection with the respective receptor to obtain the relevant cell line.
The cells were cultured at 37° C. with 5% CO2 in Cell Culture Medium. They were aliquoted and stored in liquid nitrogen. The cells were kept in continuous culture and were seeded out the day before each assay.
GLP-1R and GcgR Cell Culture Medium consisted of DMEM medium with 10% FBS, 500 μg/mL G418, and 300 μg/mL hygromycin. GIPR Cell Culture Medium consisted of DMEM medium with 10% FBS, 400 μg/mL G418, and 300 μg/mL hygromycin. Assay Buffer consisted of DMEM w/o phenol red, 10 mM Hepes, 1×Glutamax, 1% ovalbumin, and 0.1% Pluronic F-68 with the addition of HSA at twice the final assay concentration.
• 1) Cells were plated at 5000 cells/well and incubated overnight in the assay plate. • 2) Cells were washed once in DPBS. • 3) Stocks of the test compounds and reference compounds in concentrations ranging from 100-300 μM were diluted 1:150 in Assay Buffer. Compounds were then diluted 1:10 in column 1 of a 96 deep well dilution plate and then carried across the row creating a 3.5 fold, 12 point dilution curve. • 4) Assay Buffer (50 μl aliquot) with or without HSA was added to each well in the assay plate. • 5) A 50 μl aliquot of compound or blank was transferred from the dilution plate to the assay plate containing the Assay Buffer with or without HSA. • 6) The assay plate was incubated for 3 h in a 5% CO2 incubator at 37° C. 7) The cells were washed once with DPBS. • 8) A 100 μl aliquot of DPBS was added to each well of the assay plate. • 9) A 100 μl aliquot of steadylite plus reagent (light sensitive) was added to each well of the assay plate. • 10) Each assay plate was covered with aluminum foil to protect it from light and shaken at 250 RPM for 30 min at room temperature. • 11) Each assay plate was read in a microtiter plate reader.
The data from the microtiter plate reader was first regressed in an Excel in order to calculate the x-axis, log scale concentrations based on the individual test compound's stock concentration and the dilutions of the assay. […] The software performs a non-linear regression (log(agonist) vs response). A minimum of two replicates was measured for each sample. The reported values are averages of the replicates.

[3] = molecular target: T2, mouse glucagon-like peptide 1 receptor (mouse, UniProt O35659 22-463); assay: cell-based or functional assay
T2 sequence (looked up): T1 sequence (O35659 22-463)

[4] = DIO mice, 0.3 nmol/kg s.c. once daily, 30 days, mean ± SEM
[5] = DIO mice, 1.0 nmol/kg s.c. once daily, 30 days, mean ± SEM
[6] = DIO mice, 3.0 nmol/kg s.c. once daily, 10 days, mean ± SEM, n = 8
[7] = DIO mice, 3.0 nmol/kg s.c. once daily, 30 days, mean ± SEM
[8] = DIO mice, 0.3 nmol/kg s.c. once daily, mean ± SEM
[9] = DIO mice, 1.0 nmol/kg s.c. once daily, mean ± SEM
[10] = DIO mice, 3.0 nmol/kg s.c. once daily, mean ± SEM

CC[C@H](C)[C@H](NC(=O)[C@H](CO)NC(=O)[C@H](Cc1ccc(O)cc1)NC(=O)[C@H](CC(=O)O)NC(=O)[C@H](CO)NC(=O)[C@@H](NC(=O)[C@H](Cc1ccccc1)NC(=O)[C@@H](NC(=O)CNC(=O)[C@H](CCC(=O)O)NC(=O)C(C)(C)NC(=O)[C@@H](N)Cc1ccc(O)cc1)[C@@H](C)O)[C@@H](C)O)C(=O)N[C@@H](Cc1ccc(O)cc1)C(=O)N[C@@H](CC(C)C)C(=O)N[C@@H](CC(=O)O)C(=O)N[C@@H](CCCCN)C(=O)N[C@@H](CCC(N)=O)C(=O)N[C@@H](C)C(=O)N[C@@H](C)C(=O)NC(C)(C)C(=O)N[C@@H](CCCCNC(=O)[C@@H](N)CCCCNC(=O)[C@@H](N)CCCCNC(=O)CC[C@H](NC(=O)CCCCCCCCCCCCCCCCC(=O)O)C(=O)O)C(=O)N[C@@H](Cc1ccccc1)C(=O)N[C@H](C(=O)N[C@@H](CC(N)=O)C(=O)N[C@@H](Cc1c[nH]c2ccccc12)C(=O)N[C@@H](CC(C)C)C(=O)N[C@@H](CC(C)C)C(=O)N[C@@H](C)C(=O)NCC(=O)NCC(=O)N1CCC[C@H]1C(=O)N[C@@H](CO)C(=O)N[C@@H](CO)C(=O)NCC(=O)N[C@@H](C)C(=O)N1CCC[C@H]1C(=O)N1CCC[C@H]1C(=O)N1CCC[C@H]1C(=O)N[C@@H](CO)C(N)=O)C(C)C [Compound 9] (H-Y[Aib]EGTFTSDYSIYLDKQAA[Aib]K([εLys-εLys-γGlu-C18 diacid])FVNWLLAGGPSSGAPPPS-NH2; N-terminus assumed)
Absolute BW Day 0 ([1]; DIO mice, 0.3 nmol/kg group, baseline Day 0 (30-day study), mean ± SEM): 66.5 ± 2.6 grams
Absolute BW Day 31 [1, 4]: 66.9 ± 3.2 grams
Change in BW Day 31 [1, 4]: 3.4 ± 1.7%
Cumulative food intake Day 31 ([1]; DIO mice, 0.3 nmol/kg s.c. once daily, 30 days, mean ± SEM, n = 2): 87.4 ± 5.9 grams
Performance compared with semaglutide surrogate in all parameters (in words) ([1]; DIO mice, 1.0 nmol/kg and 3.0 nmol/kg doses, 30 days): superior performance to semaglutide surrogate
Absolute BW Day 0 ([1]; DIO mice, 1.0 nmol/kg group, baseline Day 0 (30-day study), mean ± SEM): 70.0 ± 1.9 grams
Absolute BW Day 31 [1, 5]: 50.9 ± 2.2 grams
Change in BW Day 31 [1, 5]: −23.9 ± 2.6%
Cumulative food intake Day 31 ([1]; DIO mice, 1.0 nmol/kg s.c. once daily, 30 days, mean ± SEM, n = 2): 60.4 ± 4.5 grams
Absolute BW Day 0 ([1]; DIO mice, 3.0 nmol/kg group, baseline Day 0 (10-day study), mean ± SEM, n = 8): 63.8 ± 0.8 grams
Absolute BW Day 0 ([1]; DIO mice, 3.0 nmol/kg group, baseline Day 0 (30-day study), mean ± SEM): 65.8 ± 1.4 grams
Cumulative food intake Day 10 ([1]; DIO mice, 3.0 nmol/kg s.c. once daily, 10 days, mean ± SEM, n = 2): 8.3 ± 1.0 grams
Absolute BW Day 10 [1, 6]: 51.3 ± 0.9 grams
Change in BW Day 10 [1, 6]: −19.6 ± 0.7%
Absolute BW Day 31 [1, 7]: 40.0 ± 2.4 grams
Change in BW Day 31 [1, 7]: −39.1 ± 3.8%
Cumulative food intake Day 31 ([1]; DIO mice, 3.0 nmol/kg s.c. once daily, 30 days, mean ± SEM, n = 2): 46.4 ± 6.6 grams
Response on food intake, body weight and glucose tolerance (in words) ([1]; DIO mice, 0.3, 1.0 or 3.0 nmol/kg s.c. daily for 30 days): dose-dependent response
iAUC, IPGTT Day 31 ([2]; 0.3 nmol/kg s.c. once daily): 14979 ± 3423 mg·min/dL
iAUC, IPGTT Day 31 ([2]; 1.0 nmol/kg s.c. once daily): 7714 ± 1722 mg·min/dL
iAUC, IPGTT Day 31 ([2]; 3.0 nmol/kg s.c. once daily): 4073 ± 1764 mg·min/dL
EC50 (human glucagon receptor): > 10000 pM
EC50 (mouse GLP-1 receptor): 2.5 pM

Human GLP-1(7-37) (from UniProt P01275 98-128) (ligand)
mGLP-1R, CRE Luc EC50 [3]: 3.5 pM

Tirzepatide: known GLP-1R/GIPR co-agonist used as reference [reference compound]
Absolute BW Day 0 ([1]; DIO mice, 0.3 nmol/kg group, baseline Day 0 (14-day study), mean ± SEM): 64.1 ± 1.7 grams
Absolute BW Day 14 [1, 8]: 58.2 ± 1.9 grams
Change in BW Day 14 [1, 8]: −9.4 ± 1.2%
Cumulative food intake Day 14 [1, 8]: 32.3 ± 1.9 grams
Absolute BW Day 0 ([1]; DIO mice, 1.0 nmol/kg group, baseline Day 0 (14-day study), mean ± SEM): 63.5 ± 1.6 grams
Absolute BW Day 14 [1, 9]: 49.8 ± 1.8 grams
Change in BW Day 14 [1, 9]: −21.0 ± 1.2%
Cumulative food intake Day 14 [1, 9]: 18.4 ± 0.7 grams
Absolute BW Day 0 ([1]; DIO mice, 3.0 nmol/kg group, baseline Day 0 (14-day study), mean ± SEM): 63.6 ± 2.5 grams
Absolute BW Day 14 [1, 10]: 45.1 ± 2.1 grams
Change in BW Day 14 [1, 10]: −29.0 ± 2.4%
Cumulative food intake Day 14 [1, 10]: 16.4 ± 2.3 grams
iAUC, IPGTT Day 15 ([2]; 0.3 nmol/kg s.c. once daily): 13005 ± 2962 mg·min/dL
iAUC, IPGTT Day 15 ([2]; 1.0 nmol/kg s.c. once daily): 10365 ± 3585 mg·min/dL
iAUC, IPGTT Day 15 ([2]; 3.0 nmol/kg s.c. once daily): 8974 ± 1804 mg·min/dL

Source: patent US20230346961A1, “GLP-1 AND GIP RECEPTOR CO-AGONISTS” (Novo Nordisk A/S, priority 2020, published 2023)
